From patent publication US6472418B1, “Non-peptide NK1 receptors antagonists” (Warner-Lambert Company, priority 1998, dated 2002) come the findings set out here.

A word on the IC50: it is the midpoint of a concentration-inhibition curve.

The target of the assay is T1, Human NK1 Receptor (Homo sapiens, UniProt P25103).
T1 construct: endogenous in cells; host or cells: Human lymphoma IM9 cells (whole cells)
T1 sequence (P25103 whole entry): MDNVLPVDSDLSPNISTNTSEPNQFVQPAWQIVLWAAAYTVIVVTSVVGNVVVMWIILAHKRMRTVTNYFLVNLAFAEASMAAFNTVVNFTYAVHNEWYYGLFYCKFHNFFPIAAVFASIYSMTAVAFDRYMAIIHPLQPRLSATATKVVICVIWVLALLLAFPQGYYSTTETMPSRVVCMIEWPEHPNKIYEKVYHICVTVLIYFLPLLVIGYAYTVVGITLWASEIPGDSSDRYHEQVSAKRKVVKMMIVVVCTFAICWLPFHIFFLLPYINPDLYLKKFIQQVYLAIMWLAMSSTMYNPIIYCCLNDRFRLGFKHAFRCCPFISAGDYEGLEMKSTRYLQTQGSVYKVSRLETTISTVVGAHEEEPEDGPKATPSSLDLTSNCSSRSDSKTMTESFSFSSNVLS
In words: In Vitro Human NK1 Receptor Binding Assay ([125I]Bolton-Hunter substance P displacement, IM9 cells). Particulars: Human lymphoma IM9 cells, [125I]Bolton-Hunter substance P; Table 3, array-synthesis products; read-out: IC50 (nM) hNK1. As for the experimental part: They have been evaluated in an NK1-receptor binding assay which is described below.
Human lymphoma IM9 cells were grown in RPMI 1640 culture medium supplemented with 10% fetal calf serum and 2 mM glutamine and maintained under an atmosphere of 5% CO2. Cells were passaged every 3-4 days by reseeding to a concentration of 4-8×10^6/40 ml per 175 cm^2 flask. Cells were harvested for experiments by centrifugation at 1000 g for 3 min. Pelleted cells were washed once by resuspension into assay buffer (50 mM Tris HCl pH 7.4, 3 mM MnCl2, 0.02% BSA, […] bacitracin, […] chymostatin, 2 mM phosphoramidon, […] leupeptin) and repeating the centrifugation step before resuspending at a concentration of 2.5×10^6 cells/mL assay buffer. Cells ([…]) were incubated with [^125I]Bolton-Hunter substance P (0.05-0.1 nM) in the presence and absence of varying concentrations of test compounds for 50 min at 21° C. Non-specific binding (10% of the total binding observed under these conditions) was defined by […] [Sar^9, Met(02)^11] substance P. Reactions were terminated by rapid filtration under vacuum onto GF\C filters presoaked in 0.2% PEI for 1-2 h, using a Brandel cell harvester. Filters were washed with 6×1 ml ice-cold Tris HCl (50 mM, pH 7.4) and radioactivity bound determined using a gamma couter. Results were analyzed using iterative curve fitting procedures in RS1 or Graphpad Inplot.
As to `COc1ccc(CNC(=O)C(Cc2c[nH]c3ccccc23)NCc2cc3ccccc3o2)cc1` (centres unmarked) [Example 199, 2-[(Benzofuran-2-ylmethyl)-amino]-3-(1H-indol-3-yl)-N-(4-methoxy-benzyl)-propionamide], the IC50 worked out at 130 nM.

`O=C(NCc1cccc(OC(F)(F)F)c1)C(Cc1c[nH]c2ccccc12)NCc1cc2ccccc2o1` (centres unmarked) [Example 200, 2-[(Benzofuran-2-ylmethyl)-amino]-3-(1H-indol-3-yl)-N-(3-trifluoromethoxy-benzyl)-propionamide]: the IC50 was 355 nM.

With `O=C(NCCCn1ccnc1)C(Cc1c[nH]c2ccccc12)NCc1cc2ccccc2o1` (centres unmarked) [Example 201, 2-[(Benzofuran-2-ylmethyl)-amino]-N-(3-imidazol-1-yl-propyl)-3-(1H-indol-3-yl)-propionamide], the half-maximal inhibitory concentration (IC50) was more than 10000 nM.

Take `O=C(NCC1CCNC1)C(Cc1c[nH]c2ccccc12)NCc1cc2ccccc2o1` (centres unmarked) [Example 202, 2-[(Benzofuran-2-ylmethyl)-amino]-3-(1H-indol-3-yl)-N-pyrrolidin-3-ylmethyl-propionamide]: the IC50 came out at 2180 nM.

Regarding `O=C(NCC1CCNCC1)C(Cc1c[nH]c2ccccc12)NCc1cc2ccccc2o1` (centres unmarked) [Example 203, 2-[(Benzofuran-2-ylmethyl)-amino]-3-(1H-indol-3-yl)-N-piperidin-4-ylmethyl-propionamide], the half-maximal inhibitory concentration (IC50) is more than 10000 nM.

On to `O=C(NCc1cc(F)ccc1F)C(Cc1c[nH]c2ccccc12)NCc1cc2ccccc2o1` (centres unmarked) [Example 204, 2-[(Benzofuran-2-ylmethyl)-amino]-N-(2,5-difluoro-benzyl)-3-(1H-indol-3-yl)-propionamide], for which the IC50 was determined as 68 nM.

For `O=C(NCc1cnc2ccccc2c1)C(Cc1c[nH]c2ccccc12)NCc1cc2ccccc2o1` (centres unmarked) [Example 205, 2-[(Benzofuran-2-ylmethyl)-amino]-3-(1H-indol-3-yl)-N-quinolin-3-ylmethyl-propionamide], the IC50 was found to be 2320 nM.

On to `O=C(NCCc1c[nH]cn1)C(Cc1c[nH]c2ccccc12)NCc1cc2ccccc2o1` (centres unmarked) [Example 206, 2-[(Benzofuran-2-ylmethyl)-amino]-N-[2-(1H-imidazol-4-yl)-ethyl]-3-(1H-indol-3-yl)-propionamide], for which the IC50 was 6680 nM.

As for `CC(NC(=O)C(Cc1c[nH]c2ccccc12)NCc1cc2ccccc2o1)c1cccc2ccccc12` (centres unmarked) [Example 207, 2-[(Benzofuran-2-ylmethyl)-amino]-3-(1H-indol-3-yl)-N-(1-naphthalen-1-yl-ethyl)-propionamide], the IC50 was determined as 591 nM.

On to `Cc1ccc(C(C)NC(=O)C(Cc2c[nH]c3ccccc23)NCc2cc3ccccc3o2)s1` (centres unmarked) [Example 208, 2-[(Benzofuran-2-ylmethyl)-amino]-3-(1H-indol-3-yl)-N-[1-(5-methyl-thiophen-2-yl)-ethyl]-propionamide], for which the IC50 was 15 nM.

On to `Cc1ccc(CNC(=O)C(Cc2c[nH]c3ccccc23)NCc2cc3ccccc3o2)cc1` (centres unmarked) [Example 209, 2-[(Benzofuran-2-ylmethyl)-amino]-3-(1H-indol-3-yl)-N-(4-methyl-benzyl)-propionamide], for which the concentration for half-maximal inhibition (IC50) came to 82 nM.

Turning to `O=C(NC1(CO)CCCC1)C(Cc1c[nH]c2ccccc12)NCc1cc2ccccc2o1` (centres unmarked) [Example 211, 2-[(Benzofuran-2-ylmethyl)-amino]-N-(1-hydroxymethylcyclopentyl)-3-(1H-indol-3-yl)-propionamide], the concentration for half-maximal inhibition (IC50) is more than 10000 nM.

`O=C(NCCn1cccc1)C(Cc1c[nH]c2ccccc12)NCc1cc2ccccc2o1` (centres unmarked) [Example 212, 2-[(Benzofuran-2-ylmethyl)-amino]-3-(1H-indol-3-yl)-N-(2-pyrrol-1-yl-ethyl)-propionamide]: the IC50 stood at 658 nM.

In the case of `O=C(NCCN1CCOCC1)C(Cc1c[nH]c2ccccc12)NCc1cc2ccccc2o1` (centres unmarked) [Example 213, 2-[(Benzofuran-2-ylmethyl)-amino]-3-(1H-indol-3-yl)-N-(2-morpholin-4-yl-ethyl)-propionamide], the IC50 was found to be 1260 nM.

As to `CN(C)c1ccc(CNC(=O)C(Cc2c[nH]c3ccccc23)NCc2cc3ccccc3o2)cc1` (centres unmarked) [Example 214, 2-[(Benzofuran-2-ylmethyl)-amino]-N-(4-dimethylamino-benzyl)-3-(1H-indol-3-yl)-propionamide], the 50% inhibitory concentration (IC50) came to 4010 nM.

For `O=C(NCc1cc(Cl)sc1Cl)C(Cc1c[nH]c2ccccc12)NCc1cc2ccccc2o1` (centres unmarked) [Example 215, 2-[(Benzofuran-2-ylmethyl)-amino]-N-(2,5-dichloro-thiophen-3-ylmethyl)-3-(1H-indol-3-yl)-propionamide], the IC50 was found to be 70 nM.

Take `O=C(NCc1ccc([N+](=O)[O-])o1)C(Cc1c[nH]c2ccccc12)NCc1cc2ccccc2o1` (centres unmarked) [Example 216, 2-[(Benzofuran-2-ylmethyl)-amino]-3-(1H-indol-3-yl)-N-(5-nitro-furan-2-ylmethyl)-propionamide]: the concentration for half-maximal inhibition (IC50) is more than 10000 nM.

Consider `CC(NC(=O)C(Cc1c[nH]c2ccccc12)NCc1cc2ccccc2o1)c1ccc(N(C)C)cc1` (centres unmarked) [Example 217, 2-[(Benzofuran-2-ylmethyl)-amino]-N-[1-(4-dimethylamino-phenyl)-ethyl]-3-(1H-indol-3-yl)-propionamide], for which the IC50 was 819 nM.

For `O=C(NCc1cc(C(F)(F)F)cc(C(F)(F)F)c1)C(Cc1c[nH]c2ccccc12)NCc1cc2ccccc2o1` (centres unmarked) [Example 218, 2-[(Benzofuran-2-ylmethyl)-amino]-N-(3,5-bis-trifluoromethyl-benzyl)-3-(1H-indol-3-yl)-propionamide], the 50% inhibitory concentration (IC50) is 294 nM.

On to `O=C(NCc1cccc(Br)c1)C(Cc1c[nH]c2ccccc12)NCc1cc2ccccc2o1` (centres unmarked) [Example 219], for which the half-inhibitory concentration (IC50) turned out to be 31 nM.

As to `O=C(NCc1ccc([N+](=O)[O-])cc1)C(Cc1c[nH]c2ccccc12)NCc1cc2ccccc2o1` (centres unmarked) [Example 221, 2-[(Benzofuran-2-ylmethyl)-amino]-3-(1H-indol-3-yl)-N-(4-nitro-benzyl)-propionamide], the half-inhibitory concentration (IC50) was found to be 23 nM.

As to `O=C(NCCN1CCCC1)C(Cc1c[nH]c2ccccc12)NCc1cc2ccccc2o1` (centres unmarked) [Example 222, 2-[(Benzofuran-2-ylmethyl)-amino]-3-(1H-indol-3-yl)-N-(2-pyrrolidin-1-yl-ethyl)-propionamide], the 50% inhibitory concentration (IC50) was more than 10000 nM.

Consider `O=C(NCC1CCCO1)C(Cc1c[nH]c2ccccc12)NCc1cc2ccccc2o1` (centres unmarked) [Example 223, 2-[(Benzofuran-2-ylmethyl)-amino]-3-(1H-indol-3-yl)-N-(tetrahydro-furan-2-ylmethyl)-propionamide], for which the concentration for half-maximal inhibition (IC50) was more than 10000 nM.

On to `O=C(NC1CC1c1ccccc1)C(Cc1c[nH]c2ccccc12)NCc1cc2ccccc2o1` (centres unmarked) [Example 224, 2-[(Benzofuran-2-ylmethyl)-amino]-3-(1H-indol-3-yl)-N-(2-phenyl-cyclopropyl)-propionamide], for which the half-maximal inhibitory concentration (IC50) was 2900 nM.

Turning to `CC(C)(NC(=O)C(Cc1c[nH]c2ccccc12)NCc1cc2ccccc2o1)C1CCCCC1` (centres unmarked) [Example 225, 2-[(Benzofuran-2-ylmethyl)-amino]-N-(1-cyclohexyl-1-methyl-ethyl)-3-(1H-indol-3-yl)-propionamide], the IC50 was 1340 nM.

For `O=C(NCC1CCCCC1)C(Cc1c[nH]c2ccccc12)NCc1cc2ccccc2o1` (centres unmarked) [Example 226, 2-[(Benzofuran-2-ylmethyl)-amino]-N-cyclohexylmethyl-3-(1H-indol-3-yl)-propionamide], the IC50 is 54 nM.
